Data as given in the NIST ThermoML archive (doi:10.1021/je5003797).
Several values for one entry are separate records, joined by “and”; a condition that tells them apart may be missing. Equal values may be shown once.

Test: mn = molality of the nth substance listed, in mol/kg
Details: 298.15 K, 101 kPa, Liquid

NC=O [formamide] + O
Details	mass density
m1 = 0.4985	1000.74 kg/m3
m1 = 0.5096	1000.84 kg/m3
m1 = 0.5191	1000.9 kg/m3
m1 = 0.9969	1004.03 kg/m3
m1 = 1.081	1004.59 kg/m3
m1 = 1.085	1004.61 kg/m3
m1 = 1.499	1007.18 kg/m3 and 1007.2 kg/m3
m1 = 1.5	1007.19 kg/m3
m1 = 1.999	1010.19 kg/m3 and 1010.16 kg/m3
m1 = 2.007	1010.21 kg/m3
m1 = 2.48	1012.92 kg/m3
m1 = 2.488	1012.96 kg/m3
m1 = 2.502	1013.04 kg/m3
m1 = 2.994	1015.72 kg/m3
m1 = 3	1015.76 kg/m3
m1 = 3.002	1015.76 kg/m3
m1 = 3.476	1018.24 kg/m3
m1 = 3.502	1018.39 kg/m3
m1 = 3.535	1018.55 kg/m3
m1 = 3.999	1020.84 kg/m3
m1 = 4.044	1021.08 kg/m3
m1 = 4.137	1021.53 kg/m3
m1 = 4.49	1023.21 kg/m3
m1 = 4.502	1023.26 kg/m3
m1 = 4.505	1023.29 kg/m3
m1 = 5.002	1025.56 kg/m3
m1 = 5.012	1025.61 kg/m3
m1 = 5.067	1025.86 kg/m3
m1 = 5.49	1027.73 kg/m3
m1 = 5.547	1027.97 kg/m3
m1 = 5.575	1028.1 kg/m3
m1 = 5.973	1029.8 kg/m3
m1 = 6.008	1029.91 kg/m3
m1 = 6.01	1029.95 kg/m3
m1 = 6.497	1031.91 kg/m3
m1 = 6.503	1031.93 kg/m3
m1 = 6.51	1031.98 kg/m3
m1 = 6.99	1033.87 kg/m3
m1 = 7.004	1033.94 kg/m3
m1 = 7.056	1034.12 kg/m3
m1 = 7.468	1035.69 kg/m3
m1 = 7.481	1035.75 kg/m3
m1 = 7.493	1035.75 kg/m3
m1 = 7.99	1037.61 kg/m3
m1 = 8.002	1037.64 kg/m3
m1 = 8.037	1037.77 kg/m3
m1 = 8.468	1039.27 kg/m3
m1 = 8.506	1039.42 kg/m3
m1 = 8.522	1039.45 kg/m3
m1 = 8.947	1040.93 kg/m3
m1 = 8.99	1041.07 kg/m3
m1 = 9.032	1041.2 kg/m3
